The target of assay [1] is 3',5'-cyclic-AMP phosphodiesterase 4D (Homo sapiens, UniProt Q08499). The assay is classed as functional.
For assay [2], the target named is T1, Neuropeptide Y receptor type 1 (Homo sapiens, UniProt P25929).
T1 sequence (P25929 whole entry): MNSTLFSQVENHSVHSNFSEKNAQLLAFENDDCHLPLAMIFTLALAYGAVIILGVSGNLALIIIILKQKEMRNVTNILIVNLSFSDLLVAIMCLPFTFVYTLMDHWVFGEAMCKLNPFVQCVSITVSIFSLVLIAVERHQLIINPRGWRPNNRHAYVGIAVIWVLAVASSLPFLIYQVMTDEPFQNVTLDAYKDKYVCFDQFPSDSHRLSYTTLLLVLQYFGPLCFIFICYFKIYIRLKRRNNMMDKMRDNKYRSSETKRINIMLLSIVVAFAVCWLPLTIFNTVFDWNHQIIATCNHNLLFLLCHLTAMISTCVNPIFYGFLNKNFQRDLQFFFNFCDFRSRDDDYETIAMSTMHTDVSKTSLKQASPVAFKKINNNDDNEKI

Another assay has as its target Histamine H1 receptor (Homo sapiens, UniProt P35367).
Assay [3] deals with Kappa-type opioid receptor (Homo sapiens, UniProt P41145).
The target of assay [4] is Glutamate receptor ionotropic, NMDA 1 (Rattus norvegicus, UniProt P35439).
Assay [5] addresses T2, Type-1 angiotensin II receptor (Homo sapiens, UniProt P30556).
T2 sequence (P30556 whole entry): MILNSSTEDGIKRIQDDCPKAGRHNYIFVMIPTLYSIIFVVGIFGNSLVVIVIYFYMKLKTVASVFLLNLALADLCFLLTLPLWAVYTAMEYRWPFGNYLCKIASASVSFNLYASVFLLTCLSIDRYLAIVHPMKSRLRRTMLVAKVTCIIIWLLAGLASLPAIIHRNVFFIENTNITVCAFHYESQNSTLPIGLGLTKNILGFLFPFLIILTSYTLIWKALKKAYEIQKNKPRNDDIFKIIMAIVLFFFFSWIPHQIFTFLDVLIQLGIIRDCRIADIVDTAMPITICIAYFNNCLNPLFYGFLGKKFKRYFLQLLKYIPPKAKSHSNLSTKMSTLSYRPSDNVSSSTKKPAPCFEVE

The target of assay [6] is cGMP-inhibited 3',5'-cyclic phosphodiesterase 3A (Homo sapiens, UniProt Q14432). The assay is classed as functional.
For assay [7], the target named is Neuronal acetylcholine receptor subunit alpha-4 (Homo sapiens, UniProt P43681).
Assay [8] has as its target Growth hormone secretagogue receptor type 1 (Homo sapiens, UniProt Q92847).
For assay [9], the target named is T3, 5-hydroxytryptamine receptor 3A (Homo sapiens, UniProt P46098).
T3 sequence (P46098 whole entry): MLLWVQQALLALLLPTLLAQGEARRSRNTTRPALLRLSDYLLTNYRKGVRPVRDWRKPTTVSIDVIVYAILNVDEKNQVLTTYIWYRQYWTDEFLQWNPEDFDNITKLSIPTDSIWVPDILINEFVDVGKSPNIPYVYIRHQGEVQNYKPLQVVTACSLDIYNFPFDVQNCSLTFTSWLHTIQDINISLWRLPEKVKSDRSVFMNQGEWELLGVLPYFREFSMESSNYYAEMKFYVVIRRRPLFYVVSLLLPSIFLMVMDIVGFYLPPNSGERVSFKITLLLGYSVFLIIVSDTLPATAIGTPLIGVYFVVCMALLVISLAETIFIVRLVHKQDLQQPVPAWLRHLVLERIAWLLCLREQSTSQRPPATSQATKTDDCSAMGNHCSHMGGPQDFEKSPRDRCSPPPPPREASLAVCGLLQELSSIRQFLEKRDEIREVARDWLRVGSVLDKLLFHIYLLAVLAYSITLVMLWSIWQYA
Type of assay: functional.

The next assay concerns the target Cannabinoid receptor 1 (Homo sapiens, UniProt P21554). Type of assay: functional, cell-based.
A further assay concerns the target Mu-type opioid receptor (Homo sapiens, UniProt P35372). Description: biochemical. Type of assay: functional.
In assay [10] the target is 5-hydroxytryptamine receptor 2B (Homo sapiens, UniProt P41595). The assay is classed as functional, cell-based.
Assay [11] concerns the target T4, Cholecystokinin receptor type A (Homo sapiens, UniProt P32238).
T4 sequence (P32238 whole entry): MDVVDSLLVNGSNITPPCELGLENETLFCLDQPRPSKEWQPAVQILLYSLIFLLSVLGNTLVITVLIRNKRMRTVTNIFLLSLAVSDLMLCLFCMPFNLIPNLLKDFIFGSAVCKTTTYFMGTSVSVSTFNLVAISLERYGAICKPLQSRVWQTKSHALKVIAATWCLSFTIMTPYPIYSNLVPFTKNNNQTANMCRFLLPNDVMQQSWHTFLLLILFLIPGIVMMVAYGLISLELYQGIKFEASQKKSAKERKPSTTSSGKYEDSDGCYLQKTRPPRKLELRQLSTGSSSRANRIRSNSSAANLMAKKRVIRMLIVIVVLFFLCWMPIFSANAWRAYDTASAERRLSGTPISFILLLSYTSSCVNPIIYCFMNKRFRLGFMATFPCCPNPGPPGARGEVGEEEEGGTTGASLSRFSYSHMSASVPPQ

For eight compounds, AC50 results are on record in ChEMBL document CHEMBL5291721, “A preclinical secondary pharmacology resource illuminates target-adverse drug reaction associations of marketed drugs” (Nat Commun, 2023).

Chain of Cannabinoid receptor 1 (P21554 whole entry): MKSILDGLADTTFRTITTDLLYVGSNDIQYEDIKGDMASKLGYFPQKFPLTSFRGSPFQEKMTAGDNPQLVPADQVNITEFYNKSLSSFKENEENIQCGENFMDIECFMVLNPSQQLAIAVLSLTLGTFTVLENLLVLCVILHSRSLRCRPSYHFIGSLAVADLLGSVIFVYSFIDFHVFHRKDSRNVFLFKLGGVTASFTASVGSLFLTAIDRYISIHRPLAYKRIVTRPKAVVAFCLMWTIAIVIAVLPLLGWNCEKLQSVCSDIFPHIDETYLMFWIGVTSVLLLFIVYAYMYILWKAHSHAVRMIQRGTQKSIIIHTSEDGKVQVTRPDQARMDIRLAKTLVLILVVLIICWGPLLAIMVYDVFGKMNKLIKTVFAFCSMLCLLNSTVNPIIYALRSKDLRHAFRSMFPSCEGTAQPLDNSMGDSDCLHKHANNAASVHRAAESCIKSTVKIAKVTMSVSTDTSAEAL
Chain of 5-hydroxytryptamine receptor 2B (P41595 whole entry): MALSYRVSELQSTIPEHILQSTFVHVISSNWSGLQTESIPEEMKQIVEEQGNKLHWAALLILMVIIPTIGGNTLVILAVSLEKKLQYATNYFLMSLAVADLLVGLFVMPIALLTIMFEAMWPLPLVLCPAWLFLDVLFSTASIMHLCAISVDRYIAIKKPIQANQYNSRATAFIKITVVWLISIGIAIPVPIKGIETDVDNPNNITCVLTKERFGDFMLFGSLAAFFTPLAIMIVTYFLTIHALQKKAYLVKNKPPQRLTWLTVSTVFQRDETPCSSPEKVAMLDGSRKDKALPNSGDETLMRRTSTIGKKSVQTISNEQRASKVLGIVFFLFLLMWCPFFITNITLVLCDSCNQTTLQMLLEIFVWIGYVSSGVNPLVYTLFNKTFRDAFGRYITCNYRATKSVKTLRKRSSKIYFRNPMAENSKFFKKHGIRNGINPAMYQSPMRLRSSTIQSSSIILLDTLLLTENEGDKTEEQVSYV
Chain of Neuronal acetylcholine receptor subunit alpha-4 (P43681 whole entry): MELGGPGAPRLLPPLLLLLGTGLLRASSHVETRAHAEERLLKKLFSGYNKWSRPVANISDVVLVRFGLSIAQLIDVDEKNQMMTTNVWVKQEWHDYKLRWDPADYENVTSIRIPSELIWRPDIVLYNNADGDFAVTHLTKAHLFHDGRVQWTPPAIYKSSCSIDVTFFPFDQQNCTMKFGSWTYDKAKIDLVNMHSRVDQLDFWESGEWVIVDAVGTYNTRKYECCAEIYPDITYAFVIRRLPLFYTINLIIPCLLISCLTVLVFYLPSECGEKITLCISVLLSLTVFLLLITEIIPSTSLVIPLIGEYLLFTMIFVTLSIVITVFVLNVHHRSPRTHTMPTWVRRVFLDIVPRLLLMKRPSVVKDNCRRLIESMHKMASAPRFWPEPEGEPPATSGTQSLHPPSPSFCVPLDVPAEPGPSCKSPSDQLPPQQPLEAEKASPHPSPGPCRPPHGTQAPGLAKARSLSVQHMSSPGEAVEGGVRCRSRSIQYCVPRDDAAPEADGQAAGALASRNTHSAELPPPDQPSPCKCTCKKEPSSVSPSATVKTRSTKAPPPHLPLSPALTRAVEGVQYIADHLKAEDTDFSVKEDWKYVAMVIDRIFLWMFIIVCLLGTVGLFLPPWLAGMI
Chain of cGMP-inhibited 3',5'-cyclic phosphodiesterase 3A (Q14432 whole entry): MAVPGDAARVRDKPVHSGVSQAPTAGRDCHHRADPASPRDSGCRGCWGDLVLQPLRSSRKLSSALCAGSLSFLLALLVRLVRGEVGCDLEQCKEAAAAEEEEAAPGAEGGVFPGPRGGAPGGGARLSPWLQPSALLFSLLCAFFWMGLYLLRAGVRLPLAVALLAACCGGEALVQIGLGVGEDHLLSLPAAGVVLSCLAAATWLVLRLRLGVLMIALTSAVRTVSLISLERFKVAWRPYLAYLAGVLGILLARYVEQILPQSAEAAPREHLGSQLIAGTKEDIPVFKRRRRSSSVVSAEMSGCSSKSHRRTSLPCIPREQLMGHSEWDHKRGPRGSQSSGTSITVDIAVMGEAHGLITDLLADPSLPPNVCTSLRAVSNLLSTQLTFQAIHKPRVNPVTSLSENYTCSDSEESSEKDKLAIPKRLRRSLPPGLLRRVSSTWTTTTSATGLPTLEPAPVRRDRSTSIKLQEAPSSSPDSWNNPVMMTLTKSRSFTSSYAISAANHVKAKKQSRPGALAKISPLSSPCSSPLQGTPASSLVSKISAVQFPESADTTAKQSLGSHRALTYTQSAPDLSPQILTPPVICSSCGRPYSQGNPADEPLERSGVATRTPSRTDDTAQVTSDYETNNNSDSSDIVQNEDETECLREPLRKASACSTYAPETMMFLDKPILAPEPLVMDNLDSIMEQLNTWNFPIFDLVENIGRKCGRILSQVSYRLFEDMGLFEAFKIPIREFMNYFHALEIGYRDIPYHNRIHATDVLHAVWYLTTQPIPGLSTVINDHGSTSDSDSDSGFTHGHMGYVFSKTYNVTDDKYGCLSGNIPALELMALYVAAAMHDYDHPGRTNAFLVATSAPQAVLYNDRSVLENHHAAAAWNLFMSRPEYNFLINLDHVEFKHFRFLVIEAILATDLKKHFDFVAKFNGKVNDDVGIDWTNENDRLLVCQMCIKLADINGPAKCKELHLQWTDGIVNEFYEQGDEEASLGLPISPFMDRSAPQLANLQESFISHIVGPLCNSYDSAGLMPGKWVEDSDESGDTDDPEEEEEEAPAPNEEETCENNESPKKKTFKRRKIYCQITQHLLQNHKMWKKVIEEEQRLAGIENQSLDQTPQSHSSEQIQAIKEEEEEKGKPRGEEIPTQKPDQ
Chain of Kappa-type opioid receptor (P41145 whole entry): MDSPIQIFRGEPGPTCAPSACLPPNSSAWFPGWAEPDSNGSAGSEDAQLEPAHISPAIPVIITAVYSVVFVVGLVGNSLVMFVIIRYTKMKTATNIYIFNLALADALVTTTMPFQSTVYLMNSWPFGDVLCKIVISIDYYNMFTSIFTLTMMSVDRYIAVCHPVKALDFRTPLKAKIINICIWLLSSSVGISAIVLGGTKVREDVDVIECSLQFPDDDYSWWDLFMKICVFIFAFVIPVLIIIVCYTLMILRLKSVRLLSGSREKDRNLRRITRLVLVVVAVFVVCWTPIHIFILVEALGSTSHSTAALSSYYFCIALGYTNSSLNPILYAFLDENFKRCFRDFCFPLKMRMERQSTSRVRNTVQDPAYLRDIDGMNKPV
Chain of 3',5'-cyclic-AMP phosphodiesterase 4D (Q08499 whole entry): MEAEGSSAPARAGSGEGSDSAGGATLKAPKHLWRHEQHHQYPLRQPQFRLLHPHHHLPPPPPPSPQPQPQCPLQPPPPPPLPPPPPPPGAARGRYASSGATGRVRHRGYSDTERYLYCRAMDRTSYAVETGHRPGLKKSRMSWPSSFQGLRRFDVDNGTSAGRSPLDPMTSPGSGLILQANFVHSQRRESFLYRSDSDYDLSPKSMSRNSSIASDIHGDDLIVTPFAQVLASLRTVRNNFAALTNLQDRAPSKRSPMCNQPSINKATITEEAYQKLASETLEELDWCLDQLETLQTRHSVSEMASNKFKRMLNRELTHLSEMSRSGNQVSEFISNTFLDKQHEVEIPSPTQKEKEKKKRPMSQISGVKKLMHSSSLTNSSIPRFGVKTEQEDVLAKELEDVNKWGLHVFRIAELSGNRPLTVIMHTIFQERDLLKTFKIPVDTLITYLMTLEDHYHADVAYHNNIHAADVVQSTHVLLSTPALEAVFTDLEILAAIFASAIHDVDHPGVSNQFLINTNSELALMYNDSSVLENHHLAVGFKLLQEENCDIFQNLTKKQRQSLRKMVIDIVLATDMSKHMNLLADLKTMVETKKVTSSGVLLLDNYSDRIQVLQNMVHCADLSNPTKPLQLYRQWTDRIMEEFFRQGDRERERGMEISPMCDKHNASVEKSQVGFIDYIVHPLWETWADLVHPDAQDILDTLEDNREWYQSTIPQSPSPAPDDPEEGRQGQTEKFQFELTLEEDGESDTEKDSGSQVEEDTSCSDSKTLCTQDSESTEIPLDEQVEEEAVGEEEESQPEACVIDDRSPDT
Chain of Growth hormone secretagogue receptor type 1 (Q92847 whole entry): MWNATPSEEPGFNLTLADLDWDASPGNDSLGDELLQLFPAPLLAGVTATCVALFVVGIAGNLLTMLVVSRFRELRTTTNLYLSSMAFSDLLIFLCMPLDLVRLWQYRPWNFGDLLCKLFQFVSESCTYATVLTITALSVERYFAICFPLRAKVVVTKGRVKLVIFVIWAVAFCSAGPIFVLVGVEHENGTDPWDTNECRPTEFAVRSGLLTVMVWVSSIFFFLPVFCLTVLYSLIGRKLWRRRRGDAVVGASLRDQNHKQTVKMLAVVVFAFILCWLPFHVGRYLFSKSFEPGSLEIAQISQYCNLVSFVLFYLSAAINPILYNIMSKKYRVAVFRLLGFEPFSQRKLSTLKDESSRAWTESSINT
Chain of Histamine H1 receptor (P35367 whole entry): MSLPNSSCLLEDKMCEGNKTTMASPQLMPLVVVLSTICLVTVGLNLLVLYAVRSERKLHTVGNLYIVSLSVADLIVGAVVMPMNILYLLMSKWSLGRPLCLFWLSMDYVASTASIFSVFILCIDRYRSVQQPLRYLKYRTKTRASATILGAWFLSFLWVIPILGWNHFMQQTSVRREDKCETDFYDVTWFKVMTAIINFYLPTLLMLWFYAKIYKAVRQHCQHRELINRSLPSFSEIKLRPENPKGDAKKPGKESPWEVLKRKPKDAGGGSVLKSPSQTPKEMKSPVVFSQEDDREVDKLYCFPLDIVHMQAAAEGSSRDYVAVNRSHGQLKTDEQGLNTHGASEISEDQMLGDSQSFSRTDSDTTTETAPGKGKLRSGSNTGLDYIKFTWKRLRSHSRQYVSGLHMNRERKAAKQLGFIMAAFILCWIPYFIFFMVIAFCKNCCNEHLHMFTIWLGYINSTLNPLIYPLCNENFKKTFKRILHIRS

What is called AC50 is the concentration at which the activity in the assay is half-maximal. A higher AC50 goes with activity only at high concentration. With `O=C(Nc1nc(-c2cc(Cl)cs2)c(N2CCN(C3CCCCC3)CC2)s1)c1cnc(N2CCC(C(=O)O)CC2)c(Cl)c1` [AVATROMBOPAG], the AC50 (in assay [1]; in [2]; at Histamine H1 receptor; in [3]; in [4]; in assay [5]) was over 10 µM each time. The AC50 in assay [6], in assay [7], in assay [8] and in [9] was over 10 µM each time.

With `CO[C@@]1(NC(=O)CSCC#N)C(=O)N2C(C(=O)O)=C(CSc3nnnn3C)CS[C@@H]21` [CEFMETAZOLE], the AC50 (in assay [1]; at Cannabinoid receptor 1; in assay [3]; on Mu-type opioid receptor; in assay [10]; in assay [4]) was over 30 µM in each case. Further, the AC50 in [6] and in [9] was over 30 µM throughout.

Take `NS(=O)(=O)c1cc(C2(O)NC(=O)c3ccccc32)ccc1Cl` (centres undefined) [CHLORTHALIDONE]: the concentration at half-maximal activity (AC50) in assay [1] is over 30 µM; in assay [2] it was over 10 µM; in assay [3], over 10 µM; on Mu-type opioid receptor, over 30 µM; in assay [10], over 10 µM; in [4], over 10 µM. The concentration at half-maximal activity (AC50) in [5] was over 10 µM; in assay [6], over 30 µM; in [7], over 10 µM; in assay [8], over 10 µM; in assay [11], over 10 µM; in [9], over 30 µM.

As to `CC[C@H]1OC(=O)[C@H](C)[C@@H](O[C@H]2C[C@@](C)(OC)[C@@H](O)[C@H](C)O2)[C@H](C)[C@@H](O[C@@H]2O[C@H](C)C[C@H](N(C)C)[C@H]2O)[C@](C)(OC)C[C@@H](C)C(=O)[C@H](C)[C@@H](O)[C@]1(C)O` [CLARITHROMYCIN], the concentration at half-maximal activity (AC50) (in assay [1]; in [2]; at Cannabinoid receptor 1; at Mu-type opioid receptor; in [10]; in assay [5]) was over 30 µM in each case. Also, the AC50 in assay [6], in assay [7], in [8] and in assay [11] was over 30 µM in each case.

In the case of `O=c1oc2ccccc2c(O)c1Cc1c(O)c2ccccc2oc1=O` [DICUMAROL], the AC50 in [1] is 6.3 µM; in assay [2], over 10 µM; in [3], over 10 µM; at Mu-type opioid receptor, over 30 µM; in [10] it was over 10 µM; in [4], over 10 µM. For the same compound, the AC50 was over 10 µM in [5]; over 10 µM in [6]; over 10 µM in assay [7]; over 10 µM in assay [8]; over 10 µM in assay [11]; over 30 µM in [9].

For the compound `COCCCOc1ccnc(C[S+]([O-])c2nc3ccccc3[nH]2)c1C` (centres undefined) [RABEPRAZOLE], the AC50 in [1] was 8 µM; in [2] it was 20.5 µM; in [3], over 10 µM; in assay [10], over 10 µM; in [4], over 10 µM; in assay [5], over 30 µM. Moreover, the AC50 is over 30 µM in [6]; over 10 µM in assay [7]; over 30 µM in [8]; over 30 µM in [11]; 6 µM in assay [9].

For `O=C(CCCN1CCC2(CC1)C(=O)NCN2c1ccccc1)c1ccc(F)cc1` [SPIPERONE], the AC50 is over 30 µM in assay [1]; over 30 µM in assay [2]; over 30 µM on Cannabinoid receptor 1; 1.4 µM at Histamine H1 receptor; 5.21 µM in assay [10]; over 30 µM in [4]. Further, the AC50 in [5] is over 30 µM; in [6], over 30 µM; in assay [7], over 30 µM; in assay [8], over 10 µM; in assay [11], over 30 µM; in assay [9], over 30 µM.

On to `CCSc1ccc2c(c1)N(CCCN1CCN(C)CC1)c1ccccc1S2` [THIETHYLPERAZINE], for which the AC50 is 16 µM in assay [1], 0.17 µM on Histamine H1 receptor, over 30 µM in [6] and over 3 µM in assay [7].
